Among the data in patent US10968203B2, “Pyrimidinyl-pyridyloxy-naphthyl compounds and methods of treating IRE1-related diseases and disorders” (Genentech, Inc., priority 2017, dated 2021) are IC50 values, retold here.

Broadly, the IC50 is the concentration at which inhibition is half-maximal.

The structures appear in SMILES notation. Structures can show the parent of a compound that is named as a salt. Where two headings read alike, the source gives them in different places.

In this test the test system is XBP1s-luc 293 LUC. Nature of the test: cellular PD assay, XBP1s-LUC reporter (Example 903). The format is cell-based. Conditions: read-out: XBP1s-luc 293 LUC (IC50). In outline: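 A luciferase fusion, in frame and expressed only when the XBP1 transcript is spliced, served as the readout of cellular IRE1α activity in an XBP1-Luc reporter line.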

With `CCCN(C)S(=O)(=O)Nc1c(F)ccc2c(Oc3ncccc3-c3ccnc(N[C@H]4CCCNC4)n3)c(C)ccc12` [Example 420, 4-[2-[[6-Fluoro-2-methyl-5-[[methyl(propyl)sulfamoyl]amino]-1-naphthyl]oxy]-3-pyridyl]-2-[[(3S)-3-piperidyl]amino]pyrimidine hydrochloride], under “Table 2”, the IC50 stood at 0.041 µM.

In the case of `Cc1ccc2c(NS(=O)(=O)N(C)CC(F)(F)F)c(F)ccc2c1Oc1ncccc1-c1ccnc(N[C@H]2CCCNC2)n1` [Example 427, 4-[2-[[6-Fluoro-2-methyl-5-[[methyl(2,2,2-trifluoroethyl)sulfamoyl]amino]-1-naphthyl]oxy]-3-pyridyl]-2-[[(3S)-3-piperidyl]amino]pyrimidine hydrochloride], where the note is “Table 2”, the IC50 came to 0.006 µM.

Regarding `Cc1ccc2c(NCc3cscn3)cccc2c1Oc1ncccc1-c1ccnc(N[C@H]2CCCNC2)n1` [Example 211, (S)-4-(2-((2-Methyl-5-((thiazol-4-ylmethyl)amino)naphthalen-1-yl)oxy)pyridin-3-yl)-N-(piperidin-3-yl)pyrimidin-2-amine], for the setting “Table 1”, the 50% inhibitory concentration (IC50) worked out at 0.07 µM.

Regarding `Cc1ccc2c(N3CCCC3=O)c(F)ccc2c1Oc1ncccc1-c1ccnc(N[C@H]2CCCNC2)n1` [Example 335, (S)-1-(2-Fluoro-6-methyl-5-((3-(2-(piperidin-3-ylamino)pyrimidin-4-yl)pyridin-2-yl)oxy)naphthalen-1-yl)pyrrolidin-2-one], for the setting “Table 1”, the IC50 was 0.384 µM.

Take `Cc1ccc2c(NC(=O)CC(C)(C)C)c(F)ccc2c1Oc1ncccc1-c1ccnc(N[C@@H]2CNC[C@@H](F)C2)n1` (single isomer, unassigned) [Example 322]: the IC50 (Table 1) came to 0.0407 µM.

Consider `Cc1ccc2c(NS(=O)(=O)Cc3ccccc3C(F)(F)F)c(F)ccc2c1Oc1ncccc1-c1ccnc(N[C@H]2CCCNC2)n1` [Example 392, (S)—N-(2-Fluoro-6-methyl-5-((3-(2-(piperidin-3-ylamino)pyrimidin-4-yl)pyridin-2-yl)oxy)naphthalen-1-yl)-1-(2-(trifluoromethyl)phenyl)methanesulfonamide], for which the IC50 (Table 1) came out at 0.00632 µM.

As to `Cc1ccc2c(NS(=O)(=O)Cc3ccccc3F)c(F)ccc2c1Oc1ncccc1-c1ccnc(N[C@H]2CCCNC2)n1` [Example 391, (S)—N-(2-Fluoro-6-methyl-5-((3-(2-(piperidin-3-ylamino)pyrimidin-4-yl)pyridin-2-yl)oxy)naphthalen-1-yl)-1-(2-fluorophenyl)methanesulfonamide], under “Table 1”, the IC50 came to 0.00277 µM.

`CCC(C)CS(=O)(=O)Nc1c(F)ccc2c(Oc3ncccc3-c3ccnc(N[C@H]4CCCNC4)n3)c(C)ccc12` (mixture of isomers) [Example 409, N-(2-Fluoro-6-methyl-5-((3-(2-(((S)-piperidin-3-yl)amino)pyrimidin-4-yl)pyridin-2-yl)oxy)naphthalen-1-yl)-2-methylbutane-1-sulfonamide]: for the setting “Table 2”, the IC50 came out at 0.025 µM.

Take `Cc1ccc2c(NC(=O)[C@H]3CC34CC4)cccc2c1Oc1ncccc1-c1ccnc(N[C@H]2CCCNC2)n1` (single isomer, unassigned) [Example 217]: the IC50 (Table 1) came out at 0.055 µM.

Turning to `Cc1ccc2c(NS(=O)(=O)C3CCC3)cccc2c1Oc1ncccc1-c1ccnc(N[C@H]2CCCNC2)n1` [Example 107, (S)—N-(6-Methyl-5-((3-(2-(piperidin-3-ylamino)pyrimidin-4-yl)pyridin-2-yl)oxy)naphthalen-1-yl)cyclobutanesulfonamide hydrochloride], the IC50 (Table 1) was 0.252 µM.

In the case of `Cc1cn(C)nc1Nc1cccc2c(Oc3ncccc3-c3ccnc(N[C@H]4CCCNC4)n3)c(C)ccc12` [Example 358, (S)-4-(2-((5-((1,4-Dimethyl-1H-pyrazol-3-yl)amino)-2-methylnaphthalen-1-yl)oxy)pyridin-3-yl)-N-(piperidin-3-yl)pyrimidin-2-amine], the IC50 (Table 1) was 0.266 µM.

Consider `Cc1ccc2c(NC(=O)[C@@H]3CC34CCC4)cccc2c1Oc1ncccc1-c1ccnc(N[C@H]2CCCNC2)n1` (single isomer, unassigned) [Example 340], for which the IC50 (Table 1) worked out at 0.0177 µM.

In the case of `Cc1ccc2c(NC(=O)C3(C(F)(F)F)CC3)cccc2c1Oc1ncccc1-c1ccnc(N[C@H]2CCCNC2)n1` [Example 220, (S)—N-(6-Methyl-5-(3-(2-(piperidin-3-ylamino)pyrimidin-4-yl)pyridin-2-yloxy)naphthalen-1-yl)-1-(trifluoromethyl)cyclopropanecarboxamide], under “Table 1”, the IC50 was found to be 0.309 µM.

`Cc1ccc2c(Oc3ncccc3-c3ccnc(N[C@H]4CCCNC4)n3)c(C)ccc2c1NS(=O)(=O)CC(C)C` [Example 376, (S)—N-(2,6-Dimethyl-5-((3-(2-(piperidin-3-ylamino)pyrimidin-4-yl)pyridin-2-yl)oxy)naphthalen-1-yl)-2-methylpropane-1-sulfonamide]: the IC50 (Table 1) came out at 0.0735 µM.

`Cc1ccc2c(NS(=O)(=O)Cc3ccccc3)cccc2c1Oc1ncccc1-c1ccnc(N[C@H]2CC[C@H](N)CC2)n1` [Example 152, N-(5-((3-(2-(((trans)-4-Aminocyclohexyl)amino)pyrimidin-4-yl)pyridin-2-yl)oxy)-6-methylnaphthalen-1-yl)-1-phenylmethanesulfonamide]: the IC50 (Table 1) stood at 0.241 µM.

Regarding `Cc1ccc2c(NS(=O)(=O)Cc3ccc(F)cc3)cccc2c1Oc1ncccc1-c1ccnc(N[C@H]2CCCNC2)n1` [Example 150, (S)-1-(4-Fluorophenyl)-N-(6-methyl-5-((3-(2-(piperidin-3-ylamino)pyrimidin-4-yl)pyridin-2-yl)oxy)naphthalen-1-yl)methanesulfonamide], the IC50 (Table 1) stood at 0.025 µM.

Consider `Cc1ccc2c(NCc3ccn(C)n3)cccc2c1Oc1ncccc1-c1ccnc(N[C@H]2CCCNC2)n1` [Example 262, (S)-4-(2-((2-Methyl-5-(((1-methyl-1H-pyrazol-3-yl)methyl)amino)naphthalen-1-yl)oxy)pyridin-3-yl)-N-(piperidin-3-yl)pyrimidin-2-amine], for which, for the setting “Table 1”, the IC50 is 0.171 µM.

Consider `Cc1ccc2c(NS(=O)(=O)C3CCCC3)cccc2c1Oc1ncccc1-c1ccnc(N[C@H]2CCCNC2)n1` [Example 120, (S)—N-(6-Methyl-5-((3-(2-(piperidin-3-ylamino)pyrimidin-4-yl)pyridin-2-yl)oxy)naphthalen-1-yl)cyclopentanesulfonamide hydrochloride], for which the IC50 (Table 1) was 0.18 µM.

Turning to `Cc1ccc2c(NC[C@@H](C)O)cccc2c1Oc1ncccc1-c1ccnc(N[C@H]2CCCNC2)n1` [Example 300, (R)-1-((6-Methyl-5-((3-(2-((S)-piperidin-3-ylamino)pyrimidin-4-yl)pyridin-2-yl)oxy)naphthalen-1-yl)amino)propan-2-ol], where the note is “Table 1”, the half-maximal inhibitory concentration (IC50) turned out to be 0.0554 µM.

With `Cc1ccc2c(N3CCC4(CCCCC4)C3=O)cccc2c1Oc1ncccc1-c1ccnc(N[C@H]2CCCNC2)n1` [Example 308, (S)-2-(6-Methyl-5-((3-(2-(piperidin-3-ylamino)pyrimidin-4-yl)pyridin-2-yl)oxy)naphthalen-1-yl)-2-azaspiro[4.5]decan-1-one], for the setting “Table 1”, the half-maximal inhibitory concentration (IC50) turned out to be 0.211 µM.

As for `Cc1ccc2c(NC(=O)[C@H]3C[C@@H]3C)cccc2c1Oc1ncccc1-c1ccnc(N[C@H]2CCCNC2)n1` [Example 234, (1S,2S)-2-Methyl-N-(6-methyl-5-((3-(2-(((S)-piperidin-3-yl)amino)pyrimidin-4-yl)pyridin-2-yl)oxy)naphthalen-1-yl)cyclopropane-1-carboxamide], under “Table 1”, the IC50 came to 0.111 µM.

As to `Cc1ccc2c(NC(=O)[C@H]3CC3C3CC3)cccc2c1Oc1ncccc1-c1ccnc(N[C@H]2CCCNC2)n1` (single isomer, unassigned) [Example 273], under “Table 1”, the IC50 is 0.305 µM.

Consider `CCC(F)(F)CS(=O)(=O)Nc1c(F)ccc2c(Oc3ncccc3-c3ccnc(N[C@@H]4CNC[C@@H](F)C4)n3)c(C)ccc12` (single isomer, unassigned) [Example 496, hydrochloride], for which, under “Table 2”, the IC50 came to 0.0179 µM.

In the case of `Cc1ccc2c(NS(=O)(=O)Cc3ccccc3C#N)c(F)ccc2c1Oc1ncccc1-c1ccnc(N[C@H]2CCCNC2)n1` [Example 434, (S)-1-(2-Cyanophenyl)-N-(2-fluoro-6-methyl-5-((3-(2-(piperidin-3-ylamino)pyrimidin-4-yl)pyridin-2-yl)oxy)naphthalen-1-yl)methanesulfonamide hydrochloride], where the note is “Table 2”, the half-maximal inhibitory concentration (IC50) is 0.006 µM.

Turning to `Cc1ccc2c(NC[C@H](O)C(F)(F)F)cccc2c1Oc1ncccc1-c1ccnc(N[C@@H]2CNC[C@@H](F)C2)n1` (single isomer, unassigned) [Example 469, hydrochloride], the IC50 (Table 2) came out at 0.005 µM.

Regarding `Cc1ccc2c(NS(=O)(=O)Cc3c(F)cccc3F)c(F)ccc2c1Oc1ncccc1-c1ccnc(N[C@H]2CCCNC2)n1` [Example 213, (S)-1-(2,6-Difluorophenyl)-N-(2-fluoro-6-methyl-5-((3-(2-(piperidin-3-ylamino)pyrimidin-4-yl)pyridin-2-yl)oxy)naphthalen-1-yl)methanesulfonamide], the IC50 (Table 1) was found to be 0.00457 µM.

Regarding `Cc1ccc2c(NC(=O)[C@@H]3C[C@@]3(F)c3ccccc3)cccc2c1Oc1ncccc1-c1ccnc(N[C@H]2CCCNC2)n1` (single isomer, unassigned) [Example 226], the IC50 (Table 1) was found to be 0.223 µM.

`Cc1ccc2c(NS(=O)(=O)Cc3ccccc3CO)cccc2c1Oc1ncccc1-c1ccnc(N[C@H]2CCCNC2)n1` [Example 166, (S)-1-(2-(Hydroxymethyl)phenyl)-N-(6-methyl-5-((3-(2-(piperidin-3-ylamino)pyrimidin-4-yl)pyridin-2-yl)oxy)naphthalen-1-yl)methanesulfonamide]: the IC50 (Table 1) turned out to be 0.118 µM.

As to `Cc1ccc2c(NCC(=O)C3CC3)cccc2c1Oc1ncccc1-c1ccnc(N[C@H]2CCCNC2)n1` [Example 459, (S)-1-Cyclopropyl-2-((6-methyl-5-((3-(2-(piperidin-3-ylamino)pyrimidin-4-yl)pyridin-2-yl)oxy)naphthalen-1-yl)amino)ethanone hydrochloride], the IC50 (Table 2) turned out to be 0.312 µM.

Regarding `Cc1ccc2c(NC(=O)[C@H]3CCC(C)C3)cccc2c1Oc1ncccc1-c1ccnc(N[C@H]2CCCNC2)n1` (single isomer, unassigned) [Example 278], the IC50 (Table 1) is 0.313 µM.
